In ChEMBL document CHEMBL1671699, “Steady-state intrapulmonary pharmacokinetics and pharmacodynamics of posaconazole in lung transplant recipients” (Antimicrob Agents Chemother, 2010):

Key:
[1] = Ratio of fCmax in lung transplant recipient plasma after 12 hrs to MIC90 for Aspergillus spp.; format: functional
[2] = T>MIC90 for Aspergillus spp. infected lung transplant recipient alveolar cell at 400 mg, po every 12 hrs by LS/MS analysis; format: functional, Pneumocyte
[3] = Cmin in lung transplant recipient alveolar cell at 400 mg, po every 12 hrs after 12 hrs by LC/MS analysis; format: ADME, organism-based, Pneumocyte; conditions: human, alveolar cells, read-out: Cmin
[4] = Ratio of Cmax in lung transplant recipient alveolar cell after 12 hrs to MIC90 for Aspergillus spp.; format: functional, Pneumocyte
[5] = Tmax in lung transplant recipient alveolar cell at 400 mg, po every 12 hrs after 12 hrs by LC/MS analysis; format: ADME, organism-based, Pneumocyte; conditions: human, alveolar cells
[6] = Cmax in lung transplant recipient alveolar cell at 400 mg, po every 12 hrs after 12 hrs by LC/MS analysis; format: ADME, organism-based, Pneumocyte; set-up: dose 400 mg, route oral; conditions: human, alveolar cells
[7] = Ratio of AUC (0 to 24 hrs) in lung transplant recipient alveolar cell to MIC90 for Aspergillus spp.; format: functional, Pneumocyte
[8] = AUC (0 to 24 hrs) in lung transplant recipient alveolar cell at 400 mg, po every 12 hrs by LC/MS analysis; format: ADME, organism-based, Pneumocyte; set-up: time < 24 hr, dose 400 mg, route oral; conditions: human, in vivo
[9] = Ratio of AUC (0 to 12 hrs) in lung transplant recipient alveolar cell to MIC90 for Aspergillus spp.; format: functional, Pneumocyte
[10] = AUC (0 to 12 hrs) in lung transplant recipient alveolar cell at 400 mg, po every 12 hrs by LC/MS analysis; format: ADME, organism-based, Pneumocyte; set-up: time < 12 hr, dose 400 mg, route oral; conditions: human, in vivo
[11] = T>MIC90 for Aspergillus spp. infected lung transplant recipient epithelial lining fluid at 400 mg, po every 12 hrs by LS/MS analysis; format: functional
[12] = Ratio of Cmax in lung transplant recipient epithelial lining fluid after 12 hrs to MIC90 for Aspergillus spp.; format: functional
[13] = Tmax in lung transplant recipient epithelial lining fluid at 400 mg, po every 12 hrs after 12 hrs by LC/MS analysis; format: ADME, organism-based; conditions: human
[14] = Ratio of AUC (0 to 24 hrs) in lung transplant recipient epithelial lining fluid to MIC90 for Aspergillus spp.; format: functional
[15] = Cmax in lung transplant recipient epithelial lining fluid at 400 mg, po every 12 hrs after 12 hrs by LC/MS analysis; format: ADME, organism-based; set-up: dose 400 mg, route oral; conditions: human
[16] = Ratio of AUC (0 to 12 hrs) in lung transplant recipient epithelial lining fluid to MIC90 for Aspergillus spp.; format: functional
[17] = AUC (0 to 24 hrs) in lung transplant recipient epithelial lining fluid at 400 mg, po every 12 hrs by LC/MS analysis; format: ADME, organism-based; set-up: time < 24 hr, dose 400 mg, route oral; conditions: human, in vivo
[18] = AUC (0 to 12 hrs) in lung transplant recipient epithelial lining fluid at 400 mg, po every 12 hrs by LC/MS analysis; format: ADME, organism-based; set-up: time < 12 hr, dose 400 mg, route oral; conditions: human, in vivo
[19] = T>MIC90 for Aspergillus spp. infected lung transplant recipient plasma at 400 mg, po every 12 hrs by LS/MS analysis; format: functional
[20] = Cmin in lung transplant recipient plasma at 400 mg, po every 12 hrs after 12 hrs by LC/MS analysis; format: ADME, organism-based; conditions: human, read-out: Cmin
[21] = Ratio of Cmax in lung transplant recipient plasma after 12 hrs to MIC90 for Aspergillus spp.; format: functional
[22] = Tmax in lung transplant recipient plasma at 400 mg, po every 12 hrs after 12 hrs by LC/MS analysis; format: ADME, organism-based; conditions: human
[23] = Cmax in lung transplant recipient plasma at 400 mg, po every 12 hrs after 12 hrs by LC/MS analysis; format: ADME, organism-based; set-up: dose 400 mg, route oral; conditions: human
[24] = Ratio of AUC (0 to 24 hrs) in lung transplant recipient plasma to MIC90 for Aspergillus spp.; format: functional
Plasma [25] = experiment: AUC (0 to 24 hrs) in lung transplant recipient plasma at 400 mg, po every 12 hrs by LC/MS analysis; format: ADME, organism-based; set-up: dose 400 mg, time < 24 hr, route oral; conditions: human, in vivo
[26] = Ratio of AUC (0 to 12 hrs) in lung transplant recipient plasma to MIC90 for Aspergillus spp.; format: functional
Plasma [27] = experiment: AUC (0 to 12 hrs) in lung transplant recipient plasma at 400 mg, po every 12 hrs by LC/MS analysis; format: ADME, organism-based; set-up: dose 400 mg, time < 12 hr, route oral; conditions: human, in vivo
[28] = Ratio of drug level in lung transplant human recipient alveolar cell to plasma at 400 mg, po every 12 hrs after 24 hrs by LS/MS analysis; format: ADME, organism-based, Pneumocyte; conditions: other tissue
[29] = Ratio of drug level in lung transplant human recipient alveolar cell to plasma at 400 mg, po every 12 hrs after 12 hrs by LS/MS analysis; format: ADME, organism-based, Pneumocyte; conditions: other tissue
[30] = Ratio of drug level in lung transplant human recipient alveolar cell to plasma at 400 mg, po every 12 hrs after 8 hrs by LS/MS analysis; format: ADME, organism-based, Pneumocyte; conditions: other tissue
[31] = Ratio of drug level in lung transplant human recipient alveolar cell to plasma at 400 mg, po every 12 hrs after 5 hrs by LS/MS analysis; format: ADME, organism-based, Pneumocyte; conditions: other tissue
[32] = Ratio of drug level in lung transplant human recipient alveolar cell to plasma at 400 mg, po every 12 hrs after 3 hrs by LS/MS analysis; format: ADME, organism-based, Pneumocyte; conditions: other tissue
[33] = Ratio of drug level in lung transplant human recipient epithelial lining fluid to plasma at 400 mg, po every 12 hrs after 24 hrs by LS/MS analysis; format: ADME, organism-based
[34] = Ratio of drug level in lung transplant human recipient epithelial lining fluid to plasma at 400 mg, po every 12 hrs after 12 hrs by LS/MS analysis; format: ADME, organism-based
[35] = Ratio of drug level in lung transplant human recipient epithelial lining fluid to plasma at 400 mg, po every 12 hrs after 8 hrs by LS/MS analysis; format: ADME, organism-based
[36] = Ratio of drug level in lung transplant human recipient epithelial lining fluid to plasma at 400 mg, po every 12 hrs after 5 hrs by LS/MS analysis; format: ADME, organism-based
[37] = Ratio of drug level in lung transplant human recipient epithelial lining fluid to plasma at 400 mg, po every 12 hrs after 3 hrs by LS/MS analysis; format: ADME, organism-based
[38] = Drug level in lung transplant recipient alveolar cell at 400 mg, po every 12 hrs after 24 hrs by LS/MS analysis; format: ADME, organism-based, Pneumocyte; conditions: human, alveolar cells, read-out: Drug uptake
[39] = Drug level in lung transplant recipient alveolar cell at 400 mg, po every 12 hrs after 12 hrs by LS/MS analysis; format: ADME, organism-based, Pneumocyte; conditions: human, alveolar cells, read-out: Drug uptake
[40] = Drug level in lung transplant recipient alveolar cell at 400 mg, po every 12 hrs after 8 hrs by LS/MS analysis; format: ADME, organism-based, Pneumocyte; conditions: human, alveolar cells, read-out: Drug uptake
[41] = Drug level in lung transplant recipient alveolar cell at 400 mg, po every 12 hrs after 5 hrs by LS/MS analysis; format: ADME, organism-based, Pneumocyte; conditions: human, alveolar cells, read-out: Drug uptake
[42] = Drug level in lung transplant recipient alveolar cell at 400 mg, po every 12 hrs after 3 hrs by LS/MS analysis; format: ADME, organism-based, Pneumocyte; conditions: human, alveolar cells, read-out: Drug uptake
[43] = Drug level in lung transplant recipient epithelial lining fluid at 400 mg, po every 12 hrs after 24 hrs by LS/MS analysis; format: ADME, organism-based; conditions: human, read-out: Drug uptake
[44] = Drug level in lung transplant recipient epithelial lining fluid at 400 mg, po every 12 hrs after 12 hrs by LS/MS analysis; format: ADME, organism-based; conditions: human, read-out: Drug uptake
[45] = Drug level in lung transplant recipient epithelial lining fluid at 400 mg, po every 12 hrs after 8 hrs by LS/MS analysis; format: ADME, organism-based; conditions: human, read-out: Drug uptake
[46] = Drug level in lung transplant recipient epithelial lining fluid at 400 mg, po every 12 hrs after 5 hrs by LS/MS analysis; format: ADME, organism-based; conditions: human, read-out: Drug uptake
[47] = Drug level in lung transplant recipient epithelial lining fluid at 400 mg, po every 12 hrs after 3 hrs by LS/MS analysis; format: ADME, organism-based; conditions: human, read-out: Drug uptake
[48] = Drug level in lung transplant recipient plasma at 400 mg, po every 12 hrs after 24 hrs by LS/MS analysis; format: ADME, organism-based; conditions: human, read-out: Drug uptake
[49] = Drug level in lung transplant recipient plasma at 400 mg, po every 12 hrs after 12 hrs by LS/MS analysis; format: ADME, organism-based; conditions: human, read-out: Drug uptake
[50] = Drug level in lung transplant recipient plasma at 400 mg, po every 12 hrs after 8 hrs by LS/MS analysis; format: ADME, organism-based; conditions: human, read-out: Drug uptake
[51] = Drug level in lung transplant recipient plasma at 400 mg, po every 12 hrs after 5 hrs by LS/MS analysis; format: ADME, organism-based; conditions: human, read-out: Drug uptake
[52] = Drug level in lung transplant recipient plasma at 400 mg, po every 12 hrs after 3 hrs by LS/MS analysis; format: ADME, organism-based; conditions: human, read-out: Drug uptake
[53] = Ratio of fAUC (0 to 12 hrs) in lung transplant recipient plasma to MIC90 for Aspergillus spp.; format: functional
[54] = Ratio of fAUC (0 to 24 hrs) in lung transplant recipient plasma to MIC90 for Aspergillus spp.; format: functional
[55] = Protein binding in human plasma at 400 mg, po BID by LS/MS analysis; format: ADME, organism-based; conditions: read-out: PPB

CC[C@@H]([C@H](C)O)n1ncn(-c2ccc(N3CCN(c4ccc(OC[C@@H]5CO[C@@](Cn6cncn6)(c6ccc(F)cc6F)C5)cc4)CC3)cc2)c1=O [POSACONAZOLE]
Ratio [1]: 0.04
T>MIC90 [2]: 24 h
concentration at 12 h [3]: 31300 ng/mL
Ratio [4]: 110.8
Tmax [5]: 3.2 h
Cmax [6]: 55400 ng/mL
Ratio [7]: 2324
AUC [8]: 1060 µg/h/mL
Ratio [9]: 1162
AUC [10]: 530.2 µg/h/mL
T>MIC90 [11]: 24 h
Ratio [12]: 2.6
Tmax [13]: 5.3 h
Ratio [14]: 36.84
Cmax [15]: 1300 ng/mL
Ratio [16]: 18.42
AUC [17]: 22.42 µg/h/mL
AUC [18]: 11.21 µg/h/mL
T>MIC90 [19]: 24 h
concentration at 12 h [20]: 810 ng/mL
Ratio [21]: 2.5
Tmax [22]: 2.8 h
Cmax [23]: 1300 ng/mL
Ratio [24]: 39.9
AUC (Plasma [25]): 21.98 µg/h/mL
Ratio [26]: 19.95
AUC (Plasma [27]): 10.99 µg/h/mL
Ratio [28]: 56.4
Ratio [29]: 53.3
Ratio [30]: 63.6
Ratio [31]: 27.3
Ratio [32]: 40.7
Kp at 24 h [33]: 0.68
Kp at 12 h [34]: 1
Kp at 8 h [35]: 0.9
Kp at 5 h [36]: 0.57
Kp at 3 h [37]: 0.94
concentration at 24 h [38]: 49600 ng/mL
concentration at 12 h [39]: 36800 ng/mL
concentration at 8 h [40]: 54700 ng/mL
concentration at 5 h [41]: 31300 ng/mL
concentration at 3 h [42]: 55400 ng/mL
concentration at 24 h [43]: 500 ng/mL
concentration at 12 h [44]: 1200 ng/mL
concentration at 8 h [45]: 1000 ng/mL
concentration at 5 h [46]: 1300 ng/mL
concentration at 3 h [47]: 1100 ng/mL
concentration at 24 h [48]: 740 ng/mL
concentration at 12 h [49]: 930 ng/mL
concentration at 8 h [50]: 810 ng/mL
concentration at 5 h [51]: 1100 ng/mL
concentration at 3 h [52]: 1300 ng/mL
Ratio [53]: 0.33
Ratio [54]: 0.6
fraction unbound [55]: < 0.02
